# Experimental data from patent US20260207490A1, “Hydroxydiphenylethane compound ointment, use thereof, and method for preparing same” (Cutia Therapeutics (Wuxi) Co., Ltd., priority 2022, published 2026).
# Experiments:
# [1] = Saturated solubility in different excipients; assay type: physicochemical
# [2] = Saturated solubility in medium-chain triglycerides / isopropyl myristate / light liquid paraffin mixtures; assay type: physicochemical; settings: for Saturation solubility of 2-isopropyl-5-(2′-phenylethyl)-1,3-benzenediol: room temperature
# Description: Experimental variables A, B, and C were set as the content of medium-chain triglycerides (%), isopropyl myristate (%), and light liquid paraffin (%), respectively (for the convenience of experimental design and operation, light liquid paraffin was used to represent all hydrocarbon compounds). According to the maximum safe dosage of excipients (FDA IID database), the variable range was set as follows: 0<A≤20, 0<B≤20. According to the preliminary experimental results (medium-chain triglycerides are more important for the dissolution of API and the stability of the system) and the requirements for the viscosity and skin feel of the ointment, the constraints were set as follows: A>B; A+B≤25%; A+B+C=100%.
# According to the variable range and constraint conditions, a total of 20 experimental formulations were designed. After the components were mixed evenly in proportion, an excess of 2-isopropyl-5-(2′-phenylethyl)-1,3-benzenediol was added, stirred overnight at room temperature, centrifuged, the supernatant was filtered and diluted, and the saturated solubility of 2-isopropyl-5-(2′-phenylethyl)-1,3-benzenediol was tested.
# The saturated solubility of 2-isopropyl-5-(2′-phenylethyl)-1,3-benzenediol in different proportions of medium-chain triglycerides, isopropyl myristate and light liquid paraffin solution was investigated to verify the accuracy of the prediction equation. The equation can accurately predict the solubility of API in different proportions of excipients. In practical applications, it is acceptable that the API content is within the range of no more than 1.2 times the saturated solubility, that is, 120%×(0.445829×A+0.032300×B−0.000599×C+0.008112×A×B−0.003841×A×C). Preferably, when the content of the active ingredient in the preparation is not higher than 0.445829×A+0.032300×B−0.000599×C+0.008112×A×B−0.003841×A×C, a better solution-type ointment can be prepared. It is further preferred that the content of the active ingredient in the preparation is not higher than 90% of the saturated solubility, that is, the content of the active ingredient in the preparation is not higher than 90%×(0.445829×A+0.032300×B−0.000599×C+0.008112×A×B−0.003841×A×C).
structure (smiles),measurement,setting,value
"CC(C)c1c(O)cc(CCc2ccccc2)cc1O [2-isopropyl-5-(2′-phenylethyl)-1,3-benzenediol]",saturated solubility,[1]; in 10% glycerol,0.00007%
same,saturated solubility,[1]; in 20% ethanol,0.02%
same,saturated solubility,[1]; in Span 80,3%
same,saturated solubility,[1]; in diethylene glycol monoethyl ether,52%
same,saturated solubility,[1]; in isopropyl myristate,27%
same,saturated solubility,[1]; in isopropyl palmitate,23%
same,saturated solubility,[1]; in light liquid paraffin,0.01%
same,saturated solubility,[1]; in medium-chain triglycerides,27%
same,saturated solubility,[1]; in polyethylene glycol 400,30%
same,saturated solubility,[1]; in polysorbate 80,17%
same,saturated solubility,[1]; in propylene glycol,30%
same,saturated solubility,[1]; in propylene glycol monolaurate,30%
same,saturated solubility,[1]; in water,0.0008%
same,"Saturation solubility of 2-isopropyl-5-(2′-phenylethyl)-1,3-benzenediol","[2]; experimental formulation 1: MCT 5.97%, isopropyl myristate 5.97%, light liquid paraffin 88.06%",1.09%
same,"Saturation solubility of 2-isopropyl-5-(2′-phenylethyl)-1,3-benzenediol","[2]; experimental formulation 2: MCT 6.63%, isopropyl myristate 6.63%, light liquid paraffin 86.74%",1.22%
same,"Saturation solubility of 2-isopropyl-5-(2′-phenylethyl)-1,3-benzenediol","[2]; experimental formulation 3: MCT 20.00%, isopropyl myristate 0.00%, light liquid paraffin 80.00%",2.47%
same,"Saturation solubility of 2-isopropyl-5-(2′-phenylethyl)-1,3-benzenediol","[2]; experimental formulation 4: MCT 2.00%, isopropyl myristate 0.00%, light liquid paraffin 98.00%",0.11%
same,"Saturation solubility of 2-isopropyl-5-(2′-phenylethyl)-1,3-benzenediol","[2]; experimental formulation 5: MCT 12.50%, isopropyl myristate 12.50%, light liquid paraffin 75.00%",3.78%
same,"Saturation solubility of 2-isopropyl-5-(2′-phenylethyl)-1,3-benzenediol","[2]; experimental formulation 6: MCT 16.15%, isopropyl myristate 0.00%, light liquid paraffin 83.85%",2.07%
same,"Saturation solubility of 2-isopropyl-5-(2′-phenylethyl)-1,3-benzenediol","[2]; experimental formulation 7: MCT 20.00%, isopropyl myristate 0.00%, light liquid paraffin 80.00%",2.91%
same,"Saturation solubility of 2-isopropyl-5-(2′-phenylethyl)-1,3-benzenediol","[2]; experimental formulation 8: MCT 18.79%, isopropyl myristate 6.21%, light liquid paraffin 75.00%",4.13%
same,"Saturation solubility of 2-isopropyl-5-(2′-phenylethyl)-1,3-benzenediol","[2]; experimental formulation 9: MCT 11.30%, isopropyl myristate 3.90%, light liquid paraffin 84.80%",1.73%
same,"Saturation solubility of 2-isopropyl-5-(2′-phenylethyl)-1,3-benzenediol","[2]; experimental formulation 10: MCT 11.62%, isopropyl myristate 2.02%, light liquid paraffin 86.36%",1.55%
same,"Saturation solubility of 2-isopropyl-5-(2′-phenylethyl)-1,3-benzenediol","[2]; experimental formulation 11: MCT 10.84%, isopropyl myristate 0.00%, light liquid paraffin 89.16%",1.05%
same,"Saturation solubility of 2-isopropyl-5-(2′-phenylethyl)-1,3-benzenediol","[2]; experimental formulation 12: MCT 12.50%, isopropyl myristate 12.50%, light liquid paraffin 75.00%",3.42%
same,"Saturation solubility of 2-isopropyl-5-(2′-phenylethyl)-1,3-benzenediol","[2]; experimental formulation 13: MCT 9.35%, isopropyl myristate 8.77%, light liquid paraffin 81.88%",2.20%
same,"Saturation solubility of 2-isopropyl-5-(2′-phenylethyl)-1,3-benzenediol","[2]; experimental formulation 14: MCT 17.87%, isopropyl myristate 7.13%, light liquid paraffin 75.00%",4.11%
same,"Saturation solubility of 2-isopropyl-5-(2′-phenylethyl)-1,3-benzenediol","[2]; experimental formulation 15: MCT 10.84%, isopropyl myristate 0.00%, light liquid paraffin 89.16%",1.06%
same,"Saturation solubility of 2-isopropyl-5-(2′-phenylethyl)-1,3-benzenediol","[2]; experimental formulation 16: MCT 15.17%, isopropyl myristate 4.03%, light liquid paraffin 80.80%",2.65%
same,"Saturation solubility of 2-isopropyl-5-(2′-phenylethyl)-1,3-benzenediol","[2]; experimental formulation 17: MCT 13.29%, isopropyl myristate 8.31%, light liquid paraffin 78.40%",3.98%
same,"Saturation solubility of 2-isopropyl-5-(2′-phenylethyl)-1,3-benzenediol","[2]; experimental formulation 18: MCT 5.84%, isopropyl myristate 1.16%, light liquid paraffin 93.00%",0.48%
same,"Saturation solubility of 2-isopropyl-5-(2′-phenylethyl)-1,3-benzenediol","[2]; experimental formulation 19: MCT 2.00%, isopropyl myristate 0.00%, light liquid paraffin 98.00%",0.09%
same,"Saturation solubility of 2-isopropyl-5-(2′-phenylethyl)-1,3-benzenediol","[2]; experimental formulation 20: MCT 18.79%, isopropyl myristate 6.21%, light liquid paraffin 75.00%",3.95%
same,Measured saturated solubility,"[2]; validation group 1: MCT 20%, isopropyl myristate 0.85%, light liquid paraffin 79.15%",3.32%
same,Measured saturated solubility,"[2]; validation group 2: MCT 20%, isopropyl myristate 3.4%, light liquid paraffin 76.6%",3.85%
same,Measured saturated solubility,"[2]; validation group 3: MCT 13.75%, isopropyl myristate 9.23%, light liquid paraffin 77.02%",3.52%
same,Measured saturated solubility,"[2]; validation group 4: MCT 11.2%, isopropyl myristate 7.55%, light liquid paraffin 81.25%",2.56%
same,Measured saturated solubility,"[2]; validation group 5: MCT 8.72%, isopropyl myristate 5.04%, light liquid paraffin 86.24%",1.58%
same,Measured saturated solubility,"[2]; validation group 6: MCT 3%, isopropyl myristate 3%, light liquid paraffin 94%",0.401%
same,Measured saturated solubility,"[2]; validation group 7: MCT 2%, isopropyl myristate 2%, light liquid paraffin 96%",0.203%
